Assay results published in patent US20050019268A1, “Spray containing ubiquinone Qn” (MSE Pharmazeutika GmbH, priority 1999, published 2005).

Test system: migraine and tension headaches
Assay: treatment of pain from migraine and tension headaches with Q-10 (oral capsules vs nasal formulation)
Format: in vivo
Details: oral administration of from 600 to 800 mg of Q-10 in the form of capsules
Text: The spray according to the invention is preferably an oral or nasal spray, so that the administration of ubiquinone Qn or ubiquinone Qn precursors can be effected on an inhalative or intranasal route. The spray according to the invention is useful, in particular, for the treatment of pain conditions as encountered in migraine and neuropathy, in neural disorders, such as depressions, psychoses, lack of concentration, and in neurodegenerative diseases, such as Alzheimer's, Parkinson's, Huntington's, multiple sclerosis and cerebral paresis. The application as an oral or nasal spray seems to accelerate the transport of ubiquinone Qn or its precursors through the blood-brain barrier. […] In principle, however, doses of as high as 1000 mg can be employed.

COC1=C(OC)C(=O)C(C/C=C(\C)CC/C=C(\C)CC/C=C(\C)CC/C=C(\C)CC/C=C(\C)CC/C=C(\C)CC/C=C(\C)CC/C=C(\C)CC/C=C(\C)CCC=C(C)C)=C(C)C1=O [Q-10, 2,3-dimethoxy-5-methyl-6-deca-prenyl-1,4-benzoquinone]
effect on migraine: virtually no effect
